Values quoted from earlier work, collected in patent publication US20240173233A1, “COSMETIC SACHET FOR REDUCING AGE-RELATED SYMPTOMS IN HUMAN SKIN” (Bloo Pharmapeutica Inc., priority 2022, published 2024).

Columns and labels:
[1] = tested on: 3D skin model
[2] = tested on: elastin and collagen 2A1; conditions: MB treatment of skin
[3] = tested on: skin fibroblast; conditions: in comparison with other widely used general and mitochondrial-targeting antioxidants
[4] = tested on: cultured human skin fibroblasts derived from healthy donors and from patients with progeria

SMILES: CN(C)c1ccc2nc3ccc(=[N+](C)C)cc-3sc2c1.[Cl-] [methylene blue, [7-(dimethylamino)phenothiazine-3-ylidene]-dimethylazanium chloride]
- dermis thickness [1]: increased skin hydration and dermis thickness
- skin hydration [1]: increased skin hydration
- skin viability [1]: improved skin viability
- wound healing [1]: promoted wound healing
- expression of extracellular matrix proteins [2]: upregulation of elastin and collagen 2A1
- delaying cellular senescence [3]: more effective
- stimulating skin fibroblast proliferation [3]: more effective
- reactive oxygen species (ROS) scavenging efficacy [4]: potent reactive oxygen species (ROS) scavenging efficacy
